pIC50: −log10 of the molar value. Blank lines part the entries; values can stand above or below the molecule they belong to. Calls of active or inactive are those of the source. The calls are words filed in the database; no cut-off is given here.
Key:
[1] = biological target: T1, Sodium- and chloride-dependent glycine transporter 1 (Homo sapiens, UniProt P48067); experiment: Inhibition of GlyT1 (unknown origin) assessed as inhibition of [14C]glycine uptake
T1 sequence (P48067 whole entry): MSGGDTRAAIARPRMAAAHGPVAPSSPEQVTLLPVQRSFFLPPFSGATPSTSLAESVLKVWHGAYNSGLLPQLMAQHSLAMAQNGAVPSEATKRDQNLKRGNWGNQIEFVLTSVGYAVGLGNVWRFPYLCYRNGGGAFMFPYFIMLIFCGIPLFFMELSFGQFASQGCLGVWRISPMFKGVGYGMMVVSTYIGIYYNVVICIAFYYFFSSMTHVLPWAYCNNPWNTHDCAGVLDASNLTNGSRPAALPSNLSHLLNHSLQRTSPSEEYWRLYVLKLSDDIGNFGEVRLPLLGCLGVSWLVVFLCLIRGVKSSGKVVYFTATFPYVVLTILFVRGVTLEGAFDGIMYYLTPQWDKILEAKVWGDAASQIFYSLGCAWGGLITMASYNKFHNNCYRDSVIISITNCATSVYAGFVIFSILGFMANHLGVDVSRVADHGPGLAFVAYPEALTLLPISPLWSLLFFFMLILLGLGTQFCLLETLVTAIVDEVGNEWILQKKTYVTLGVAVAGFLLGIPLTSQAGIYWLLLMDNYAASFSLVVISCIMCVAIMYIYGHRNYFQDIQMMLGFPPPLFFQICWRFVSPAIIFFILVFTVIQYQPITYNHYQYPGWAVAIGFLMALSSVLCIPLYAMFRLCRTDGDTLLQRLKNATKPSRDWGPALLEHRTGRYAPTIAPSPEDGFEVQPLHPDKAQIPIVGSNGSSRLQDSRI

[2] = biological target: T2, Sodium- and chloride-dependent glycine transporter 2 (Homo sapiens, UniProt Q9Y345); experiment: Inhibition of GlyT2 (unknown origin)
T2 sequence (Q9Y345 whole entry): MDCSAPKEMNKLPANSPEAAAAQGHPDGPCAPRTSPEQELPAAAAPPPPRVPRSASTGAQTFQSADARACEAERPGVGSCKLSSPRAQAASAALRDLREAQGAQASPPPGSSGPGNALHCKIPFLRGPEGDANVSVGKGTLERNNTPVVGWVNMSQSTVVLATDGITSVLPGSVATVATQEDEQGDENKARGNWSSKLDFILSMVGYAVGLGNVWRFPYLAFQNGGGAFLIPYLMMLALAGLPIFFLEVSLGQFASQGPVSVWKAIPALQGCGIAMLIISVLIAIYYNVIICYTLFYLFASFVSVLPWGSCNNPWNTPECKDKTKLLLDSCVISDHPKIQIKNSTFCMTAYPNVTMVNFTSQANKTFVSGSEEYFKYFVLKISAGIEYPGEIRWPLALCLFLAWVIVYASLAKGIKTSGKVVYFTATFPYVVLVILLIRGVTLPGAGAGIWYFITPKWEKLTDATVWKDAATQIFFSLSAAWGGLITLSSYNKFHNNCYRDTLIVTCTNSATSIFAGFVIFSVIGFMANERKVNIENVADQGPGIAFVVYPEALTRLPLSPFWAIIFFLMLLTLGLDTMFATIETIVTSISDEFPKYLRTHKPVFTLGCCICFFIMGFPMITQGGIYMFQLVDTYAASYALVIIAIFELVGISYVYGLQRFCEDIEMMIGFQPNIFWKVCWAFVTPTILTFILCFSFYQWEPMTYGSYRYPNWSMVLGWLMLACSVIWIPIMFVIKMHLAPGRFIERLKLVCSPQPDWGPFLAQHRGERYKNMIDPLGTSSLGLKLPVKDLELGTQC

Cytochrome P450 3A4 = Cytochrome P450 3A4 (Homo sapiens, UniProt P08684); experiment: Inhibition of CYP3A4 (unknown origin); format: ADME
Cytochrome P450 3A4, sequence (P08684 whole entry): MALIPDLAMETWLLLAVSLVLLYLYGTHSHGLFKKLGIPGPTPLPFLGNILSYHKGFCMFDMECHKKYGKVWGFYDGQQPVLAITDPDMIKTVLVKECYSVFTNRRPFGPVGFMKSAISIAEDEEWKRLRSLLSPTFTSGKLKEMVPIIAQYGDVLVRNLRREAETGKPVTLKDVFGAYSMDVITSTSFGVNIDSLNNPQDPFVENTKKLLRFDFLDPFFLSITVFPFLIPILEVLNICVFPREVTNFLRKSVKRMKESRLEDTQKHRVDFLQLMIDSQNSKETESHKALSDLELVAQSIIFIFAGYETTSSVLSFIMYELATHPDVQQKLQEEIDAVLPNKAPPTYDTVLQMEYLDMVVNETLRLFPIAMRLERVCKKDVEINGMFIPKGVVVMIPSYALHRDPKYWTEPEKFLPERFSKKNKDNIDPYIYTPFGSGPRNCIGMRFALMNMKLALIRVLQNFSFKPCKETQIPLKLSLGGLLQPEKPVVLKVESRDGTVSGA

Cytochrome P450 2C9 = Cytochrome P450 2C9 (Homo sapiens, UniProt P11712); experiment: Inhibition of CYP2C9 (unknown origin); format: ADME
Cytochrome P450 2C9, sequence (P11712 whole entry): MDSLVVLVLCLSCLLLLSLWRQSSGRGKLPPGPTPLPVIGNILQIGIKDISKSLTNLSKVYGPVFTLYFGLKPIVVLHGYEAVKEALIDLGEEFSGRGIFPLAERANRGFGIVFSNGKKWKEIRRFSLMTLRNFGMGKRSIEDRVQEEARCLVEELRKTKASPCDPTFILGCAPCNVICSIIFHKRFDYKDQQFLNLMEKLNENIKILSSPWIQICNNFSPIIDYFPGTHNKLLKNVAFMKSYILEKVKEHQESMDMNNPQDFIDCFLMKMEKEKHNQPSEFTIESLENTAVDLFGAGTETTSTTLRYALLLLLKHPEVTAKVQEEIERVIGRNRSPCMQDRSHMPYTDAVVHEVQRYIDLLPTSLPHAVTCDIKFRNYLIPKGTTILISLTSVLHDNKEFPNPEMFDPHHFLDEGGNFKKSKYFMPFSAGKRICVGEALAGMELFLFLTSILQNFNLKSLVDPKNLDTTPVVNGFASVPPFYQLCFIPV

[3] = Partitioning coefficient, ratio of drug uptake from rat brain to plasma at 10 mg/kg, po; format: ADME, organism-based; design: dose 10 mg/kg, route oral
Cytochrome P450 2D6 = Cytochrome P450 2D6 (Homo sapiens, UniProt P10635); experiment: Inhibition of CYP2D6 (unknown origin); format: ADME
Cytochrome P450 2D6, sequence (P10635 whole entry): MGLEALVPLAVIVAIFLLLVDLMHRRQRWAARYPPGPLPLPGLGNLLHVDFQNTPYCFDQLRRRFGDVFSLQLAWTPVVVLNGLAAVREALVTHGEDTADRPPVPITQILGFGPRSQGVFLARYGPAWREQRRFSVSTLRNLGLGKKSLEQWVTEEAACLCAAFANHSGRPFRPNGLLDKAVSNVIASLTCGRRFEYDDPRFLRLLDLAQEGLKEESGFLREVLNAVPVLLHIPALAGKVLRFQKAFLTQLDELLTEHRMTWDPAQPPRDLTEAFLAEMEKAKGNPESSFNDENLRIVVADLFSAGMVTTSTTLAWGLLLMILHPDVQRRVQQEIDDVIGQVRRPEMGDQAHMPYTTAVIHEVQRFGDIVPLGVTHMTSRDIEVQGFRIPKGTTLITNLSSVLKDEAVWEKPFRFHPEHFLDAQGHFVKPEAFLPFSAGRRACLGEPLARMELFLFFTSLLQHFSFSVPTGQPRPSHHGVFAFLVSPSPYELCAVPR

Cytochrome P450 1A2 = biological target: T3, Cytochrome P450 1A2 (Homo sapiens, UniProt P05177); experiment: Inhibition of CYP1A2 (unknown origin); format: ADME
T3 sequence (P05177 whole entry): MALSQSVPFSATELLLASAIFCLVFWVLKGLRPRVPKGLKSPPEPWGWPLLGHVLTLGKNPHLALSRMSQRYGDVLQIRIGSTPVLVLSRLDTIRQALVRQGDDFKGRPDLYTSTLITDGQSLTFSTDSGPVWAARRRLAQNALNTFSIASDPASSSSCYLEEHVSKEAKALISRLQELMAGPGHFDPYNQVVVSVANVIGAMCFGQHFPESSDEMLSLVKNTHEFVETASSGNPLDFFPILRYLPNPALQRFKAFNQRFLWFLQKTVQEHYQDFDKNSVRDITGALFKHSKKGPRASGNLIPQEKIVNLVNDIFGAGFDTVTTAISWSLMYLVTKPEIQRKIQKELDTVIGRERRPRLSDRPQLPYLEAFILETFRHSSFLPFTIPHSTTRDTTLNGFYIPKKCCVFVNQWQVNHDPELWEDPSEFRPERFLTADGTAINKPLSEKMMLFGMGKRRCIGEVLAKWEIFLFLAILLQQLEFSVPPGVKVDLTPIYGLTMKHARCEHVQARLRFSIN

[4] = (§1) Fraction unbound in human plasma; format: ADME, cell-free
Plasma = experiment: as §1; format: ADME, cell-free
Rattus norvegicus [5] = experiment: Toxicity in rat schizophrenia model assessed as effect on basal startle amplitude at 30 mg/kg, po; format: organism-based; design: dose 30 mg/kg, route oral; conditions: in vivo
Rattus norvegicus [6] = experiment: Antischizophrenic activity in rat schizophrenia model assessed as inhibition of […] to […] dB intensity-induced prepulse at 30 mg/kg, po; format: functional, organism-based; design: dose 30 mg/kg

SMILES: NCC(=O)O [GLYCINE]
- pIC50 [1]: 4.50

SMILES: CN1C[C@@H]2[C@H](C1)[C@H]2CN(Cc1ccc(Cl)c(F)c1)C(=O)c1cn(C)cn1
- pIC50 (Cytochrome P450 3A4): < 5.00
- pIC50 (Cytochrome P450 2C9): < 5.00

SMILES: Cn1cnc(S(=O)(=O)N2C[C@@H]3[C@H](C2)[C@@]3(CNC(=O)c2ccc(Cl)cc2)CC2CC2)c1
- Kp ([3]; brain): 0.3
- pIC50 [1]: 7.49
- Fu (Plasma): 3%

SMILES: Cn1cnc(S(=O)(=O)N2C[C@@H]3[C@H](C2)[C@@]3(CNC(=O)c2ccc(Cl)c(Cl)c2)CC2CC2)c1
- Kp ([3]; brain): 0.3
- pIC50 [1]: 7.09
- Fu (Plasma): 2%

SMILES: CCS(=O)(=O)N1CCC(CNC(=O)c2ccc(Cl)cc2Cl)(CC2CC2)CC1
- Activity (Rattus norvegicus [5]): Non-toxic
- inhibition (Rattus norvegicus [6]): Active
- pIC50 (Cytochrome P450 3A4): < 5.00
- pIC50 (Cytochrome P450 2C9): < 5.00

Other lines, results leading:

- pIC50 [1]: < 5.00
- pIC50 [2]: < 4.52
SMILES: O=C(NC[C@]1(CC2CC2)[C@@H]2CN(S(=O)(=O)c3ccccc3F)C[C@@H]21)c1ccc(Cl)cc1Cl

- Kp ([3]; brain): 1.1
- pIC50 (Cytochrome P450 2D6): < 4.52
- pIC50 (Cytochrome P450 3A4): < 4.52
- pIC50 (Cytochrome P450 1A2): < 4.52
- pIC50 (Cytochrome P450 2C9): < 4.52
- pIC50 [1]: 6.61
- fraction unbound [4]: 0.14
SMILES: Cn1cnc(S(=O)(=O)N2C[C@@H]3[C@H](C2)[C@@]3(CNC(=O)c2ccc(Cl)cc2Cl)c2ccccn2)c1

- pIC50 [1]: 6.00
- pIC50 [2]: < 4.52
SMILES: O=C(NC[C@]1(CC2CC2)[C@@H]2CN(S(=O)(=O)c3ccccn3)C[C@@H]21)c1ccc(Cl)cc1Cl

- pIC50 [1]: 5.47
- pIC50 [2]: < 4.52
SMILES: CC(C)S(=O)(=O)N1C[C@@H]2[C@H](C1)[C@@]2(CNC(=O)c1ccc(Cl)cc1Cl)CC1CC1

- pIC50 [1]: 6.05
- pIC50 [2]: < 4.52
SMILES: O=C(NC[C@]1(CC2CC2)[C@@H]2CN(S(=O)(=O)c3cccnc3)C[C@@H]21)c1ccc(Cl)cc1Cl

- pIC50 [1]: 5.54
- pIC50 [2]: < 4.52
SMILES: CC(C)CS(=O)(=O)N1C[C@@H]2[C@H](C1)[C@@]2(CNC(=O)c1ccc(Cl)cc1Cl)CC1CC1

- Kp ([3]; brain and plasma, read-out: Kp): 0.4
- fraction unbound [4]: 0.03
SMILES: Cn1cnc(S(=O)(=O)N2C[C@@H]3[C@H](C2)[C@@]3(CNC(=O)c2ccccc2Cl)CC2CC2)c1
